ChEMBL document CHEMBL1201862, “PubChem BioAssay data set” (2004)
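The compound was tested at five concentrations on cells cultured in 96-well plates, with a 48-hour exposure period. Abbreviation: GI50, concentration required for 50% inhibition of growth.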 Activity calls are given as the source filed them. Rule as the data show it: active = GI50 up to about 1.1 µM and inactive = higher.

Assays:
Experiment in all cases: NCI-60 cell line screen, 48 h
[1] = system: OVCAR-5
[2] = system: SN12C
[3] = system: SK-MEL-2
[4] = system: 786-0
[5] = system: OVCAR-8
[6] = system: UACC-62
[7] = system: HT-29
[8] = system: SF-295
[9] = system: SW-620
[10] = system: M14
[11] = system: RXF 393
[12] = system: NCI-H522
[13] = system: K562
[14] = system: KM12
[15] = system: LOX IMVI
[16] = system: CAKI-1
[17] = system: NCI-H226

Structure (SMILES)	GI50 [1]	GI50 [2]	GI50 [3]	GI50 [4]	GI50 [5]	GI50 [6]	GI50 [7]	GI50 [8]	GI50 [9]	GI50 [10]	GI50 [11]	GI50 [12]	GI50 [13]	GI50 [14]	GI50 [15]	GI50 [16]	GI50 [17]
CC1=C(Cl)C=CP(=O)(OC(C)C)C1 (stereo not given)	> 100 µM (inactive)	> 100 µM (inactive)	> 100 µM (inactive)	> 100 µM (inactive)	36.9 µM (inactive)	> 100 µM (inactive)	> 100 µM (inactive)	> 100 µM (inactive)	67.8 µM (inactive)	61.7 µM (inactive)	> 100 µM (inactive)	27.8 µM (inactive)	47.4 µM (inactive)	> 100 µM (inactive)	–	–	–
CC(=O)N(CCN)CCN	–	> 10 µM (inactive)	> 100 µM (inactive)	> 10 µM (inactive)	> 10 µM (inactive)	> 100 µM (inactive)	–	> 10 µM (inactive)	> 10 µM (inactive)	> 10 µM (inactive)	> 10 µM (inactive)	> 10 µM (inactive)	> 10 µM (inactive)	> 10 µM (inactive)	> 10 µM (inactive)	> 10 µM (inactive)	–
CCOc1cc(/C=C/C=C/c2ccc(N(C)C)cc2)[s+]c2ccccc12	> 100 µM (inactive)	35.8 µM (inactive)	20.4 µM (inactive)	19 µM (inactive)	25.6 µM (inactive)	14.4 µM (inactive)	35.8 µM (inactive)	33.8 µM (inactive)	30.7 µM (inactive)	38.7 µM (inactive)	24.2 µM (inactive)	–	4.85 µM (inactive)	17.1 µM (inactive)	15.4 µM (inactive)	23.7 µM (inactive)	–
O=c1c2cccnc2ncn1CCCN1CCCCC1	> 100 µM (inactive)	> 100 µM (inactive)	> 100 µM (inactive)	> 100 µM (inactive)	> 100 µM (inactive)	> 100 µM (inactive)	> 100 µM (inactive)	> 100 µM (inactive)	> 100 µM (inactive)	> 100 µM (inactive)	> 100 µM (inactive)	> 100 µM (inactive)	> 100 µM (inactive)	> 100 µM (inactive)	> 100 µM (inactive)	> 100 µM (inactive)	> 100 µM (inactive)
CNS(=O)(=O)NN(C)S(=O)(=O)c1ccc(C)cc1	> 100 µM (inactive)	> 100 µM (inactive)	> 100 µM (inactive)	> 100 µM (inactive)	> 100 µM (inactive)	> 100 µM (inactive)	> 100 µM (inactive)	> 100 µM (inactive)	> 100 µM (inactive)	> 100 µM (inactive)	> 100 µM (inactive)	> 100 µM (inactive)	> 10 µM (inactive)	> 100 µM (inactive)	–	> 100 µM (inactive)	–
C/C(CCN(C)C)=N\OC(=O)c1ccccc1	> 100 µM (inactive)	> 100 µM (inactive)	> 100 µM (inactive)	> 100 µM (inactive)	> 100 µM (inactive)	> 100 µM (inactive)	> 100 µM (inactive)	63.7 µM (inactive)	> 100 µM (inactive)	> 100 µM (inactive)	> 100 µM (inactive)	> 100 µM (inactive)	> 100 µM (inactive)	> 100 µM (inactive)	> 100 µM (inactive)	> 100 µM (inactive)	> 100 µM (inactive)
COC(OC)c1cc2c(cc1C=O)OCO2	> 100 µM (inactive)	> 100 µM (inactive)	> 100 µM (inactive)	> 100 µM (inactive)	> 100 µM (inactive)	44 µM (inactive)	> 100 µM (inactive)	–	> 100 µM (inactive)	48.9 µM (inactive)	> 100 µM (inactive)	> 100 µM (inactive)	64.9 µM (inactive)	> 100 µM (inactive)	–	34.1 µM (inactive)	> 100 µM (inactive)
CCC(C)n1c(C)nc2c1C(=O)c1ccccc1C2=O (stereo not given)	–	57.8 µM (inactive)	> 100 µM (inactive)	61.2 µM (inactive)	47.1 µM (inactive)	28.2 µM (inactive)	40.4 µM (inactive)	49.8 µM (inactive)	64.7 µM (inactive)	> 100 µM (inactive)	26.7 µM (inactive)	51.3 µM (inactive)	34 µM (inactive)	> 100 µM (inactive)	23.1 µM (inactive)	–	61.9 µM (inactive)
Cc1ccccc1C(=O)c1ccccc1O	> 100 µM (inactive)	> 100 µM (inactive)	> 100 µM (inactive)	> 100 µM (inactive)	> 100 µM (inactive)	> 100 µM (inactive)	> 100 µM (inactive)	> 100 µM (inactive)	> 100 µM (inactive)	> 100 µM (inactive)	> 100 µM (inactive)	–	> 100 µM (inactive)	> 100 µM (inactive)	> 100 µM (inactive)	> 84.3 µM (inactive)	> 100 µM (inactive)
COC(=O)C1=CC(=O)[C@@H]2CCCC[C@H]12	–	> 100 µM (inactive)	> 100 µM (inactive)	> 100 µM (inactive)	> 100 µM (inactive)	> 100 µM (inactive)	–	–	> 100 µM (inactive)	> 100 µM (inactive)	> 100 µM (inactive)	> 100 µM (inactive)	> 100 µM (inactive)	> 100 µM (inactive)	–	> 100 µM (inactive)	> 100 µM (inactive)
O=C1CCC2(c3ccc(Cl)cc3)Nc3ccccc3N12 (stereo not given)	> 100 µM (inactive)	> 100 µM (inactive)	> 100 µM (inactive)	> 100 µM (inactive)	> 100 µM (inactive)	–	> 100 µM (inactive)	> 100 µM (inactive)	> 100 µM (inactive)	–	48.3 µM (inactive)	55.5 µM (inactive)	54.5 µM (inactive)	> 100 µM (inactive)	> 100 µM (inactive)	–	67.9 µM (inactive)
O=C(NC(Cc1ccccc1)C(=O)CCl)OCc1ccccc1 (stereo not given)	11.8 µM (inactive)	4.91 µM (inactive)	10.3 µM (inactive)	3.83 µM (inactive)	4.38 µM (inactive)	9.2 µM (inactive)	16.6 µM (inactive)	14.1 µM (inactive)	4.26 µM (inactive)	10.6 µM (inactive)	–	1.67 µM (inactive)	3.2 µM (inactive)	10 µM (inactive)	1.76 µM (inactive)	5.15 µM (inactive)	–
Cc1nc2c(=O)[nH]c(=O)n(C)c2[nH]c1=O.c1ccncc1	> 100 µM (inactive)	> 100 µM (inactive)	> 100 µM (inactive)	> 100 µM (inactive)	> 100 µM (inactive)	> 100 µM (inactive)	> 100 µM (inactive)	–	> 100 µM (inactive)	> 100 µM (inactive)	> 100 µM (inactive)	> 100 µM (inactive)	> 100 µM (inactive)	> 100 µM (inactive)	> 100 µM (inactive)	> 100 µM (inactive)	> 100 µM (inactive)
c1ccc(-c2ccnc3c2ccc2c(-c4ccccc4)ccnc23)cc1	1.04 µM (active)	2.26 µM (inactive)	3.37 µM (inactive)	2.64 µM (inactive)	1.48 µM (inactive)	0.418 µM (active)	1.18 µM (inactive)	–	3.72 µM (inactive)	3.37 µM (inactive)	1.83 µM (inactive)	1.46 µM (inactive)	0.621 µM (active)	0.628 µM (active)	2.31 µM (inactive)	–	1.65 µM (inactive)
O=C1C(=O)N(c2ccc(Cl)c(Cl)c2)C(=O)C(=O)C1c1nc2ccccc2o1	> 100 µM (inactive)	94.6 µM (inactive)	> 100 µM (inactive)	> 100 µM (inactive)	> 100 µM (inactive)	74.8 µM (inactive)	41.6 µM (inactive)	> 100 µM (inactive)	56.5 µM (inactive)	80.4 µM (inactive)	–	57.4 µM (inactive)	36.6 µM (inactive)	> 100 µM (inactive)	> 100 µM (inactive)	> 100 µM (inactive)	> 100 µM (inactive)
COc1ccc(NN=C2C(=O)CCC2=O)cc1	> 100 µM (inactive)	> 100 µM (inactive)	> 100 µM (inactive)	> 100 µM (inactive)	> 100 µM (inactive)	5.69 µM (inactive)	> 100 µM (inactive)	98.9 µM (inactive)	> 100 µM (inactive)	57.3 µM (inactive)	> 100 µM (inactive)	–	> 100 µM (inactive)	> 100 µM (inactive)	> 100 µM (inactive)	> 100 µM (inactive)	> 100 µM (inactive)
CN1CCCC2(CCCc3ccccc32)C1 (stereo not given)	> 100 µM (inactive)	> 100 µM (inactive)	> 100 µM (inactive)	> 100 µM (inactive)	> 100 µM (inactive)	> 100 µM (inactive)	> 100 µM (inactive)	> 100 µM (inactive)	> 100 µM (inactive)	> 100 µM (inactive)	–	> 100 µM (inactive)	> 100 µM (inactive)	> 100 µM (inactive)	> 100 µM (inactive)	> 100 µM (inactive)	> 100 µM (inactive)
CCOC(=O)C1=C(Nc2ccc(Cl)c(Cl)c2)OC/C1=N\NC(=O)Cc1ccccc1	> 100 µM (inactive)	> 100 µM (inactive)	> 100 µM (inactive)	> 100 µM (inactive)	> 100 µM (inactive)	> 100 µM (inactive)	–	> 100 µM (inactive)	> 100 µM (inactive)	> 100 µM (inactive)	> 100 µM (inactive)	> 100 µM (inactive)	89.1 µM (inactive)	> 100 µM (inactive)	> 100 µM (inactive)	> 100 µM (inactive)	> 100 µM (inactive)
